Data from patent publication US20130143886A1, “METHODS FOR PRESERVING AND/OR INCREASING RENAL FUNCTION USING XANTHINE OXIDOREDUCTASE INHIBITORS” (priority 2006, published 2013).

Key:
Assay type in all cases: in vivo, Male Wistar rats
[1] = system: remnant kidney (RK) rats; assay: Micropuncture procedure to assess glomerular hemodynamics
Method: Male Wistar rats (295-340 g) were used to produce rats with remnant kidney (RK) as follows. […] Rats were then assigned to one of four treatment groups: Group 1, RK control rats (n=7); Group 2, RK+febuxostat (Fx) rats (n=8); […] Oxonic acid (OA) (Sigma-Aldrich, St Louis Mo., USA), administered at 750 mg/kg body weight daily by oral gavage, was given starting the day after the 5⁄6 nephrectomy. […] All groups were treated for four weeks. Body weight (beginning just before surgery) and food and water intakes were measured daily. Systolic blood pressure, measured in conscious rats by a tail cuff sphygmomanometer, and plasma uric acid (UA) levels were measured at just before surgery (namely, at baseline) and at the end of the four weeks. Proteinuria was measured at baseline and at the end of two and four weeks. A renal micropuncture procedure along with systemic blood pressure monitoring under pentobarbital anesthesia was performed at the end of four weeks followed by morphologic evaluation of the renal preglomerular microvasculature. Animals were anesthetized with pentobarbital sodium (30 mg/kg, intraperitoneal (ip)) and placed on a thermoregulated table to maintain body temperature at 37° C. Trachea, jugular veins, femoral arteries and the left ureter were catheterized with polyethylene tubing (PE-240, PE-50, and PE-10). The left kidney was exposed, placed in a Lucite holder, sealed with agar, and covered with Ringer's solution. Mean arterial pressure (MAP) was monitored with a pressure transducer (Model p23 db; Gould, San Juan, Puerto Rico) connected to the catheter in the femoral artery and recorded on a polygraph (Grass Instruments, Quincy, Mass., USA). Blood samples were taken periodically and replaced with blood from a donor rat. Rats were maintained under euvolemic conditions by infusion of 10 mL/kg of body weight of isotonic rat plasma during surgery, followed by an infusion of 25%, polyfructosan, at 2.2 ml/h (Inutest; Fresenius Kabi, Linz, Austria). After 60 minutes, five to seven samples of proximal tubular fluid were obtained to determine flow rate and polyfructosan concentrations. Intratubular pressure under free-flow (FF) and stop-flow (SFP) conditions and peritubular capillary pressure (Pc) were measured in other proximal tubules with a servo-null device (Servo Nulling Pressure System; Instrumentation for Physiology and Medicine, San Diego, Calif., USA). Glomerular colloid osmotic pressure was estimated from protein concentrations obtained from blood of the femoral artery (Ca) and surface efferent arterioles (Ce). Polyfructosan was measured in plasma and urine samples by the anthrone-based technique described by Davidson and […] in “Simplification of the anthrone method for the determination of inulin in clearance studies,” J Lab Clin Med. 62:351-356 (1963), the contents of which are herein incorporated by reference. In brief, plasma samples were deproteinated first with trichloroacetic acid. After centrifugation, the supernatant was used for polyfructosan measurement. Polyfructosan concentrations in plasma and urine samples were assessed by the addition of anthrone reagent followed by incubation at 45° C. for 50 minutes and reading in a spectrophotometer set at wavelength of 620 nm. […] Total GFR was calculated using the following formula: GFR=(U×V)/P, where U is the polyfructosan concentration in urine, V is urine flow rate, and P is the polyfructosan concentration in plasma. The volume of fluid collected from individual proximal tubules was estimated from the length of the fluid column in a constant-bore capillary tube of known internal diameter. The concentration of tubular polyfructosan was measured by the microfluorometric method described by Vurek and Pegram in “Fluorometric method for the determination of nanogram quantities of inulin,” Anal Biochem 16:409-419 (1966), the contents of which are herein incorporated by reference. […]

[2] = system: remnant kidney (RK) rats; assay: Body weight, food and water intake in remnant kidney rats; details: RK rats (RK + Fx or RK + OA group)
Method: Male Wistar rats (295-340 g) were used to produce rats with remnant kidney (RK) as follows. […] Rats were then assigned to one of four treatment groups: Group 1, RK control rats (n=7); Group 2, RK+febuxostat (Fx) rats (n=8); Group 3, RK+oxonic acid (OA) rats (n=6); and Group 4, RK+OA+Fx (n=10). Oxonic acid (OA) (Sigma-Aldrich, St Louis Mo., USA), administered at 750 mg/kg body weight daily by oral gavage, was given starting the day after the ⅚ nephrectomy. Beginning immediately following the surgery, febuxostat was administered in drinking water at 30 mg/L (3-4 mg/kg/day), whereas the respective controls received only drinking water (with 3.5 mg/L of NaCl added to keep an equivalent salt concentration to the Fx-containing water). All groups were treated for four weeks. Body weight (beginning just before surgery) and food and water intakes were measured daily. Systolic blood pressure, measured in conscious rats by a tail cuff sphygmomanometer, and plasma uric acid (UA) levels were measured at just before surgery (namely, at baseline) and at the end of the four weeks. Proteinuria was measured at baseline and at the end of two and four weeks. A renal micropuncture procedure along with systemic blood pressure monitoring under pentobarbital anesthesia was performed at the end of four weeks followed by morphologic evaluation of the renal preglomerular microvasculature. Food and water intake were determined daily. Systolic blood pressure (SBP) was measured by a tail-cuff sphygmomanometer using an automated system (XBP-100; Kent Scientific Co, Torrington, Conn., USA) in conscious animals. All animals were preconditioned for blood pressure measurements one week before each experiment. Plasma uric acid was quantified using a commercial kit (Diagnostic Chemicals Ltd, Charlottetown, PEI, Canada). Proteinuria was determined by turbidimetry by the method of trichloroacetic acid as described in Henry R J et al., “Turbidimetric determination of proteins with sulfosalicylic and tricholoroacetic acids”, Proc Soc Exp Biol Med 92:748-751 (1956), the contents of which are herein incorporated by reference.

[3] = system: remnant kidney (RK) rats; assay: Renal arteriolar morphology; details: RK rats vs RK control group
Method: Male Wistar rats (295-340 g) were used to produce rats with remnant kidney (RK) as follows. […] Rats were then assigned to one of four treatment groups: Group 1, RK control rats (n=7); Group 2, RK+febuxostat (Fx) rats (n=8); Group 3, RK+oxonic acid (OA) rats (n=6); and Group 4, RK+OA+Fx (n=10). Oxonic acid (OA) (Sigma-Aldrich, St Louis Mo., USA), administered at 750 mg/kg body weight daily by oral gavage, was given starting the day after the 5⁄6 nephrectomy. Beginning immediately following the surgery, febuxostat was administered in drinking water at 30 mg/L (3-4 mg/kg/day), whereas the respective controls received only drinking water (with 3.5 mg/L of NaCl added to keep an equivalent salt concentration to the Fx-containing water). After the micropuncture study, kidneys were washed by perfusion with phosphate-buffered saline and then fixed with 4% paraformaldehyde. Renal biopsies were embedded in paraffin. Sections of 4-μm thick fixed tissue were stained with periodic acid Schiff (PAS) reagent and Masson's trichrome staining. Arteriolar morphology was assessed by indirect peroxidase immunostaining for alpha-smooth muscle actin (DAKO Corp, Carpinteria, Calif., USA). Renal sections incubated with normal rabbit serum were used as negative controls for immunostaining against alpha smooth-muscle actin. For each arteriole, the outline of the vessel and its internal lumen (excluding the endothelium) were generated using computer analysis to calculate the total medial area (outline inline), in 10 arterioles per biopsy. The media/lumen ratio was calculated by the outline/inline relationship (See, Sanchez-Lozada L G et al., “Mild hyperuricemia induces glomerular hypertension in normal rats”, Am J Physiol Renal Physiol 283:[…]-[…] (2002); Sanchez-Lozada L G, et al., “Mild hyperuricemia induces vasoconstriction and maintains glomerular hypertension in normal and remnant kidney rats,” Kidney Int 67:237-247 (2005), the contents of each are herein incorporated by reference). Quantifications were performed blinded.

[4] = system: remnant kidney (RK) rats; assay: Plasma uric acid in remnant kidney rats; details: RK+OA rats, end of four weeks
Method: Male Wistar rats (295-340 g) were used to produce rats with remnant kidney (RK) as follows. […] Rats were then assigned to one of four treatment groups: Group 1, RK control rats (n=7); Group 2, RK+febuxostat (Fx) rats (n=8); Group 3, RK+oxonic acid (OA) rats (n=6); and Group 4, RK+OA+Fx (n=10). Oxonic acid (OA) (Sigma-Aldrich, St Louis Mo., USA), administered at 750 mg/kg body weight daily by oral gavage, was given starting the day after the ⅚ nephrectomy. Beginning immediately following the surgery, febuxostat was administered in drinking water at 30 mg/L (3-4 mg/kg/day), whereas the respective controls received only drinking water (with 3.5 mg/L of NaCl added to keep an equivalent salt concentration to the Fx-containing water). All groups were treated for four weeks. Body weight (beginning just before surgery) and food and water intakes were measured daily. Systolic blood pressure, measured in conscious rats by a tail cuff sphygmomanometer, and plasma uric acid (UA) levels were measured at just before surgery (namely, at baseline) and at the end of the four weeks. Proteinuria was measured at baseline and at the end of two and four weeks. A renal micropuncture procedure along with systemic blood pressure monitoring under pentobarbital anesthesia was performed at the end of four weeks followed by morphologic evaluation of the renal preglomerular microvasculature. Food and water intake were determined daily. Systolic blood pressure (SBP) was measured by a tail-cuff sphygmomanometer using an automated system (XBP-100; Kent Scientific Co, Torrington, Conn., USA) in conscious animals. […] Plasma uric acid was quantified using a commercial kit (Diagnostic Chemicals Ltd, Charlottetown, PEI, Canada). Proteinuria was determined by turbidimetry by the method of trichloroacetic acid as described in Henry R J et al., “Turbidimetric determination of proteins with sulfosalicylic and tricholoroacetic acids”, Proc Soc Exp Biol Med 92:748-751 (1956), the contents of which are herein incorporated by reference.

[5] = RK rats (RK + Fx or RK + OA group), end of four weeks

In the case of `O=C(O)c1nc(=O)[nH]c(=O)[nH]1` [OA, oxonic acid, reference compound], the GFR [1, 5] is reported as 0.29 ± 0.06 mL/min, the Kf [1, 5] is reported as 0.027 ± 0.003 nL/s · mmHg and the PGC [1, 5] is reported as 64.4 ± 1.1 mmHg. For the same compound, the QA [1, 5] was 170 ± 16 nL/min, the SNGFR [1, 5] was 51.3 ± 4.8 nL/min and the MAP ([1]; RK rats (RK + Fx or RK + OA group), end of four weeks, under anesthesia) was 198 ± 10 mmHg. For the same compound, the “Glomerular plasma flow (in words)” value ([1]; RK+OA group) was “significant decrease”, the “GFR (in words)” value ([1]; RK+OA rats vs RK control group) was “similarly low as in the RK control group” and the “Single-nephron GFR (in words)” value ([1]; RK+OA rats vs RK control group) was “lower compared to the RK control group”. For the same compound, the “Afferent resistance (in words)” value ([1]; RK+OA rats vs RK control rats) was “significantly elevated”, the BW ([2]; End of Week 4) was 328.5 ± 6.6 g and the “BW Gain (from baseline)” value ([2]; End of Week 4) was 5.5 ± 10.3 g. The “Daily Food Intake” value ([2]; Week 1) was 14.2 ± 2.1 g, the “Daily Water Intake” value ([2]; Week 1) was 44.3 ± 3.5 mL and the “Daily Food Intake” value ([2]; Week 2) was 19.7 ± 0.7 g. For the same compound, the “Daily Water Intake” value ([2]; Week 2) was 58.6 ± 1.4 mL, the “Daily Food Intake” value ([2]; Week 3) was 21.3 ± 1.0 g and the “Daily Water Intake” value ([2]; Week 3) was 57.2 ± 2.6 mL. For the same compound, the “Daily Food Intake” value ([2]; Week 4) was 20.7 ± 0.9 g, the “Daily Water Intake” value ([2]; Week 4) was 48.6 ± 3.0 mL and the “Thickening of preglomerular vessels / afferent arteriole (in words)” value [3] was “developed additional thickening of the afferent arteriole”. For the same compound, the “Plasma uric acid relative to the RK control rats (in words)” value [4] was “increased significantly by over two-fold”.
